This data set in a line: Henry solubility constant Hcp at 310 K (mol/(m3 Pa)). As to conditions: reference: Mirvish et al. (1976).

As to `CC1CN(N=O)CC(C)N1N=O` (stereo not given) [2,6-dimethyldinitrosopiperazine], the “Henry solubility constant Hcp at 310 K” value is > 190.

Take `CC1CN(N=O)CC(C)O1` (stereo not given) [2,6-dimethylnitrosomorpholine]: the “Henry solubility constant Hcp at 310 K” value came out at 35.

For the compound `O=NN1CCOCC1` [4-nitrosomorpholine], the “Henry solubility constant Hcp at 310 K” value was 390.

As to `CC(C)N(N=O)C(C)C` [N-(1-methylethyl)-N-nitroso-2-propanamine], the “Henry solubility constant Hcp at 310 K” value stood at 1.2.

With `CN(Cc1ccccc1)N=O` [N-methyl-N-nitrosobenzenemethanamine], the “Henry solubility constant Hcp at 310 K” value was found to be 0.79.

Regarding `CCOC(=O)N(C)N=O` [N-nitroso-N-methylurethane], the “Henry solubility constant Hcp at 310 K” value stood at 0.39.

Consider `CCCCN(CCCC)N=O` [N-nitrosodi-N-butylamine], for which the “Henry solubility constant Hcp at 310 K” value worked out at 0.72.

Regarding `CCN(CC)N=O` [N-nitrosodiethylamine], the “Henry solubility constant Hcp at 310 K” value turned out to be 1.4.

With `CN(C)N=O` [N-nitrosodimethylamine], the “Henry solubility constant Hcp at 310 K” value is 5.2.

For `CCCN(CCC)N=O` [N-nitrosodipropylamine], the “Henry solubility constant Hcp at 310 K” value came out at 1.8.

As for `O=NN1CCCCC1` [N-nitrosopiperidine], the “Henry solubility constant Hcp at 310 K” value was 11.

In the case of `O=NN1CCN(N=O)CC1` [dinitrosopiperazine], the “Henry solubility constant Hcp at 310 K” value is > 190.

As for `CCCCN(CC)N=O` [ethylbutylnitrosamine], the “Henry solubility constant Hcp at 310 K” value came out at 0.99.

For `CCN(C#N)N=O` [ethylnitrosocyanamide], the “Henry solubility constant Hcp at 310 K” value is 0.26.

Turning to `CCCCN(C)N=O` [methylbutylnitrosamine], the “Henry solubility constant Hcp at 310 K” value was found to be 1.7.

Take `CC(=O)N(C)N=O` [methylnitrosoacetamide]: the “Henry solubility constant Hcp at 310 K” value was found to be 0.086.

Turning to `CN(N=O)C(N)=O` [methylnitrosourea], the “Henry solubility constant Hcp at 310 K” value was > 190.

On to `CCCCCN(C)N=O` [methylpentylnitrosamine], for which the “Henry solubility constant Hcp at 310 K” value turned out to be 2.

Turning to `O=NN1CCC1` [nitrosoazetidine], the “Henry solubility constant Hcp at 310 K” value is > 190.

As to `O=NN1CCCCCC1` [nitrosohexamethyleneimine], the “Henry solubility constant Hcp at 310 K” value was 43.

The values above are taken from Sander's compilation of Henry's law constants (doi:10.1093/jnci/56.6.1125).
